Here are results for 58 molecules from ChEMBL document CHEMBL1201862, “PubChem BioAssay data set” (2004).

Some test systems named below: BT-549; T47D; DLD-1; DMS-273; HOP-18; KM-20L2; LXFL 529; XF498.
Assay in all cases: NCI anticancer screen, dose series, 48 h

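In this assay, cells in 96-well plates receive the compound at five concentrations for 48 hours. Endpoints are linearly interpolated between the surrounding concentrations. Here, GI50 denotes the concentration required for 50% inhibition of growth.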 The source made the active and inactive calls. Cut-off read from the data, not from the text of the source: active = GI50 up to about 1.1 µM and inactive = higher. A value given as a limit tells only on which side of the number the result lay.

For `Cc1ccc(-c2nc3cc(F)c(N4CCN(C)CC4)cc3[nH]2)cc1`, the GI50 with BT-549 was 22.1 µM (inactive); in the experiment with T47D it was 23 µM (inactive).
Taken in the same sequence, the figures for `CC12CCC3c4ccc(O)cc4CCC3C1C/C(=N\O)C2O` (stereo not drawn) were > 100 µM (inactive) and > 100 µM (inactive).
For the molecule `NC(=O)C12C3C4C1C1C2C3C41C(N)=O` (stereo not drawn), the GI50 in the experiment on DLD-1, in the experiment on DMS-273, with HOP-18, in the experiment with KM-20L2 and with LXFL 529 was > 100 µM (inactive) in each case.
Turning to `NCCCN(CCCCN(CCCN)Cc1ccc2ccccc2c1)Cc1ccc2ccccc2c1`, the GI50 was 2.23 µM (inactive) with BT-549 and 2.42 µM (inactive) with T47D.
Consider `Cc1ccc(-c2ccc(Nc3c4ccccc4nc4ccccc34)cc2)cn1`, for which the GI50 with T47D is 2.17 µM (inactive).
Take `Cc1cc(O)nc(NNC(C#N)c2ccc(N(C)C)cc2)n1` (stereo not drawn): the GI50 in the experiment on DLD-1, with DMS-273, with HOP-18 and in the experiment on KM-20L2 was > 100 µM (inactive) in each case.
`CC1=CC(O)(c2ccccc2)C(N2CCOCC2)N1O` (stereo not drawn): the GI50 in the experiment with BT-549 and in the experiment with T47D was > 100 µM (inactive) each time.
Consider `CCCC1C2=C(C(=O)OC2=O)C2C(CC)CC3=C(C(=O)OC3=O)C12` (stereo not drawn), for which the GI50 in the experiment on BT-549 and with T47D was > 100 µM (inactive) throughout.
On to `CC1(C)C(=S)C(C)(C)C1=S`, for which the GI50 with T47D was > 100 µM (inactive).
For the molecule `O=c1oc2ccc([N+](=O)[O-])cc2c(Nc2ccc3c(c2)Oc2ccccc2O3)c1[N+](=O)[O-]`, the figures for the GI50 with BT-549 and in the experiment on T47D were 30.4 µM (inactive) and 50.2 µM (inactive), respectively.
For `CCCCCC(C(O)C#N)C(O)(C(F)(F)F)C(F)(F)F` (stereo not drawn), the GI50 with BT-549 and in the experiment on T47D was > 10 µM (inactive) in each case.
For the molecule `c1cc2cc3c4c5c(cc6ccc7cc8cc9c%10c8c8c7c6c5c8c5c%10c(c1C9N1CCOCCOCCOCCOCCOCC1)c2c45)C3` (stereo not drawn), the GI50 with BT-549 and in the experiment with T47D was > 100 µM (inactive) each time.
For the molecule `CCCCC(=O)Oc1ccc2c(C)cc(=O)oc2c1`, the GI50 with BT-549 and in the experiment with T47D was > 100 µM (inactive) each time.
`O=C(O)CCc1nc(-c2ccccc2)c(-c2ccccc2)o1` [OXAPROZIN]: the GI50 in the experiment on BT-549 is > 100 µM (inactive); in the experiment on T47D, 74.5 µM (inactive).
In the case of `CC[C@H](C)[C@H]1NC(=O)[C@@H](NC(=O)[C@@H](CC(C)C)N(C)C(=O)C2CCCN2C(=O)[C@H](C)O)[C@@H](C)OC(=O)[C@@H]2Cc3ccccc3CN2C(=O)[C@@H]2CCCN2C(=O)[C@H](CC(C)C)NC(=O)[C@@H](C)C(=O)[C@H](C(C)C)OC(=O)C[C@@H]1O` (stereo partly drawn), the GI50 in the experiment with T47D was 0.323 µM (active).
As for `CC(C)(CN1CCCCC1)C(=O)CC(SCCS(=O)(=O)O)c1ccc(Cl)c(Cl)c1` (stereo not drawn), the GI50 with BT-549 is 2.9 µM (inactive).
Consider `CC[C@@H]1CC[C@@H]2[C@H](CC[C@]3(C)[C@@H](O)CC[C@@H]23)[C@H]1CO`, for which the figures for the GI50 in the experiment with BT-549 and in the experiment on T47D were > 100 µM (inactive) and 70.5 µM (inactive), respectively.
Turning to `COc1cccc(C2c3cc4c(cc3OC(NNS(=O)(=O)c3ccc(C)cc3)C2C)OCO4)c1O` (stereo not drawn), the GI50 in the experiment on BT-549 was 19.7 µM (inactive); in the experiment on T47D it was 18.2 µM (inactive).
On to `O=C1/C(=C/c2cccc([N+](=O)[O-])c2)N=C(c2ccccc2)N1c1nc2c(Cl)cc(Cl)cc2s1`, for which the GI50 in the experiment on BT-549 is 30.5 µM (inactive); with T47D it was 24.9 µM (inactive).
As to `CC1CC(=O)C(CC(=O)O)C1C(C(=O)C(=O)Nc1c(C#N)cccc1[N+](=O)[O-])[N+](=O)[O-]` (stereo not drawn), the GI50 in the experiment with DLD-1, in the experiment with KM-20L2, in the experiment with LXFL 529 and in the experiment with XF498 was > 100 µM (inactive) in each case.
Consider `Cc1ccc(C(C2C(=O)N(C)C(=O)N(C)C2=O)C(F)(F)C(=O)N(C)C)cc1` (stereo not drawn), for which the GI50 with BT-549 and in the experiment with T47D was > 100 µM (inactive) each time.
For the molecule `CN1CCN(c2ccc3nc(C4=C(O)C(=O)[C@@H]5C(=C4O)N=C(CO)N5C)[nH]c3n2)CC1`, the GI50 is > 100 µM (inactive) in the experiment with BT-549 and 17.7 µM (inactive) in the experiment with T47D.
On to `COc1cc(C(=O)N(C(=S)OC23CC4CC(CC(C4)C2)C3)c2ccccc2)cc(OC)c1OC`, for which the GI50 in the experiment with BT-549 is 33 µM (inactive); in the experiment on T47D it was 43.2 µM (inactive).
In the case of `CN(C)CCNC1=Nc2ccccc2C(=O)N2CSCC12` (stereo not drawn), the GI50 in the experiment on BT-549 and in the experiment on T47D was > 100 µM (inactive) throughout.
Consider `CCNC(=O)c1cc(Cl)ccc1NC(=O)C12CC3CC(CC(C3)C1)C2`, for which the figures for the GI50 in the experiment on BT-549 and in the experiment with T47D were 36.6 µM (inactive) and 34.5 µM (inactive), respectively.
For `COc1cccc(-c2cc(O)c3cc(N4CCN(C)CC4)ccc3n2)c1`, in that order: 4.46 µM (inactive) and > 10 µM (inactive).
For `c1ccc2c(c1)CC1c3[nH]c4ccccc4c3CCN21` (stereo not drawn), in that order: > 10 µM (inactive) and > 10 µM (inactive).
With `O=C(NC(=S)Nc1ccc(Br)cc1)c1ccc2c(c1)Sc1ccccc1O2`, the GI50 in the experiment on BT-549 is > 100 µM (inactive); in the experiment on T47D, 63.7 µM (inactive).
On to `Cc1cc(-c2nc3c(F)cccc3s2)ccc1N`, for which the GI50 in the experiment on BT-549 was 66.1 µM (inactive).
Consider `N#Cc1c(NCCc2ccc(F)cc2)c2ccccc2n2c1nc1ccccc12`, for which the GI50 was 21.2 µM (inactive) in the experiment with BT-549 and 22.4 µM (inactive) in the experiment with T47D.
With `CC1=NN(C(=O)CSc2nc3ccc(I)cc3c(=O)n2Cc2ccccc2)C(=O)C1`, in the experiment with T47D, the GI50 was 19.1 µM (inactive).
With `NC1CC(=O)c2c1sc(Cl)c2Cl` (stereo not drawn), the GI50 in the experiment on BT-549 and with T47D was > 100 µM (inactive) each time.
For `c1ccc2c(c1)c1c(n2CCOCCN2CCOCC2)CCCC1`, the GI50 in the experiment on T47D is 32.2 µM (inactive).
Turning to `CCCCCCCC(CC(=O)NC(CO)C(=O)NC(CO)CC(C)C)OC(=O)CC(CCCCCCC)OC(=O)CC(CCCCCCC)OC1OC(C)C(O)C(OC2OC(C)C(OC(C)=O)C(O)C2O)C1O` (stereo not drawn), the GI50 was 6.17 µM (inactive) in the experiment on BT-549 and 9.14 µM (inactive) with T47D.
On to `Cc1c(N2C(=O)/C(=C/c3ccc(N(CCC#N)CCC#N)cc3)N=C2c2ccccc2)c(=O)n(-c2ccccc2)n1C`, for which the GI50 in the experiment on BT-549 and with T47D was > 100 µM (inactive) throughout.
On to `COC(=O)C1=C(C(=O)OC)C23C=CC=CC24C(C(=O)OC)=C(C(=O)OC)C4C1C3` (stereo not drawn), for which the GI50 in the experiment with DLD-1 was > 100 µM (inactive); with DMS-273 it was 72.9 µM (inactive); in the experiment on KM-20L2, > 100 µM (inactive); in the experiment on LXFL 529, 74.1 µM (inactive); in the experiment on XF498, > 100 µM (inactive).
`O=C1c2ccccc2C(=O)c2sc(Nc3ccccc3C(F)(F)F)nc21`: the GI50 in the experiment with T47D is 12 µM (inactive).
As for `C1CC[N+]23CCCC[N+]2(C1)CCCC3` (stereo not drawn), the GI50 in the experiment with DLD-1, in the experiment on KM-20L2 and in the experiment with LXFL 529 was > 100 µM (inactive) throughout.
Take `CSCCC(NCc1c(O)ccc2ccc(=O)oc12)C(=O)O` (stereo not drawn): in the experiment on T47D, the GI50 was > 100 µM (inactive).
In the case of `C#CC1(O)CCCCCCCCC2(CCCCCCCC1)OCCO2`, the GI50 in the experiment on T47D is 15.5 µM (inactive).
Consider `COc1ccc(S(=O)(=O)c2nnc(S(=O)(=O)Cc3ccccc3)s2)cc1`, for which the GI50 was 27 µM (inactive) in the experiment with BT-549 and 29.6 µM (inactive) with T47D.
On to `CC1(C)OC2OC(C(COS(=O)(=O)C(F)(F)F)N=[N+]=[N-])C(OC(=O)c3ccccc3)C2O1` (stereo not drawn), for which, in the experiment on BT-549, the GI50 was > 100 µM (inactive).
On to `O=C(CSSCC(=O)OCCS(=O)(=O)Nc1ccc(Br)cc1)OCCS(=O)(=O)Nc1ccc(Br)cc1`, for which the GI50 was 15.7 µM (inactive) with DLD-1; 9.51 µM (inactive) with DMS-273; > 100 µM (inactive) in the experiment with HOP-18; 22.9 µM (inactive) with KM-20L2; 7.1 µM (inactive) in the experiment on LXFL 529.
For `COc1ccccc1NC(=O)CC(=O)NNCC(=O)Nc1nc(-c2ccccc2)cs1`, in that order: > 100 µM (inactive), > 100 µM (inactive), > 100 µM (inactive), > 100 µM (inactive) and > 100 µM (inactive).
In the case of `Cc1ccccc1-n1c(=O)sc2c(=O)n(-c3ccccc3)c(=S)[nH]c21`, the GI50 with DLD-1, in the experiment on DMS-273, in the experiment on HOP-18, in the experiment with KM-20L2 and with LXFL 529 was > 100 µM (inactive) in each case.
As to `COc1cc(OC)c(C2c3cc4c(cc3OC(N3CCCC3)C2C)OCO4)c(OC)c1` (stereo not drawn), the GI50 in the experiment on T47D is 10.5 µM (inactive).
As for `Oc1ccc(Cl)cc1C1=NC(/N=C\c2ccccc2)=NC(c2ccccc2)C1` (stereo not drawn), the GI50 is > 100 µM (inactive) in the experiment with BT-549 and 13.3 µM (inactive) in the experiment with T47D.
Consider `COC(=O)CC1(O)C(C=C(C)C)C(C(=O)OC)C(=O)C(C(=O)OC)C1C(=O)OC` (stereo not drawn), for which the GI50 with BT-549 was 11.4 µM (inactive).
Consider `COc1ccc(/C=N/NS(=O)(=O)c2ccc(/C=C3\NC(=O)N(C)C3=O)cc2)cc1`, for which the GI50 in the experiment with BT-549 and with T47D was > 100 µM (inactive) in each case.
As to `Cc1cc(O)ccc1C1(c2ccc(F)cc2)OC(=O)c2ccccc21` (stereo not drawn), the GI50 in the experiment with BT-549 was 0.208 µM (active); in the experiment on T47D, 0.318 µM (active).
In the case of `Cc1n[nH]c(=O)n1/N=C/c1cccnc1`, the GI50 with BT-549 and in the experiment on T47D was > 100 µM (inactive) in each case.
Take `CCOP(=O)(/C=C/n1cnc2c(=O)n(C(C)=O)c(N)nc21)OCC`: the GI50 in the experiment on BT-549 and in the experiment on T47D was > 100 µM (inactive) in each case.
In the case of `COC(=O)[C@@](C)(COC(=O)C(C)(C)C)NC(=O)OC(C)(C)C`, the GI50 in the experiment on BT-549 and in the experiment on T47D was > 100 µM (inactive) in each case.
Turning to `O=C1c2ccc(O)c(O)c2C(=O)c2c(O)ccc(O)c21` [QUINALIZARIN], the GI50 in the experiment on DLD-1 is 32.5 µM (inactive); with DMS-273, 25.2 µM (inactive); with KM-20L2, 25.4 µM (inactive); in the experiment on LXFL 529, 27.5 µM (inactive).
Regarding `COc1cc(/C=N/N=C(\N)NO)cc(Cl)c1O`, the GI50 in the experiment with DLD-1 was 71.1 µM (inactive); in the experiment on HOP-18, 19.2 µM (inactive); in the experiment on LXFL 529, 44 µM (inactive).
Regarding `Cc1nc2ccccc2c(=O)n1/N=C(\N=N\c1ccc(Cl)cc1)c1cccc(-c2ccco2)c1`, the GI50 in the experiment with DLD-1 was 27.9 µM (inactive); with DMS-273, 27.9 µM (inactive); in the experiment with HOP-18, 21.1 µM (inactive); with KM-20L2 it was 27.3 µM (inactive); with LXFL 529, 25.3 µM (inactive).
In the case of `Nc1nc(Cl)cc(NCC2(CO)CCC(Cc3ccccc3)C2)n1` (stereo not drawn), the GI50 in the experiment with BT-549 is 16.2 µM (inactive); in the experiment with T47D it was 6.5 µM (inactive).
As for `CN(C)c1ccc(/C=C/C(=O)CC(=O)/C=C/c2ccc(N(C)C)cc2)cc1`, in the experiment with T47D, the GI50 was > 100 µM (inactive).
